We go through one compound from US6818646B2 (priority 2000, dated 2004).

For one series, the target named is PDEV (Oryctolagus cuniculus, UniProt G1SX67). The series is described as follows: PDE assay: inhibition of PDEV isolated from rabbit tissue. It counts as biochemical. The conditions noted are these: PDEV inhibitory activity, rabbit tissue (footnote a). The procedure:
Briefly, rabbit or human tissues were homogenized in an ice-cold buffer solution containing 20 mM HEPES (pH 7.2), 0.25M sucrose, 1 mM EDTA, and 1 mM phenylmethylsulphonyl fluoride (PMSF). The homogenates were centrifuged at 100,000 g for 60 minutes at 4° C. The supernatant was filtered through […] filter and loaded on a Pharmacia Mono Q anion exchange column (1 ml bed volume) that was equilibrated with 20 mM HEPES, 1 mM EDTA and 0.5 mM PMSF. After washing out unbound proteins, the enzymes were eluted with a linear gradient of 100-600 mM NaCl in the same buffer (35 to 50 ml total, depending on the tissue. Enzymes from the skeletal muscle, corpus cavernosum, retina, heart and platelet were eluted with 35, 40, 45, 50, and 50 ml respectively.) The column was run at a flow rate of 1 ml/min and 1 ml fractions were collected. The fractions comprising various PDE activities were pooled separately and used in later studies.
The assays were adapted to a 96-well format. The enzyme was assayed in 5 mM MgCl2, 15 mM Tris HCl (pH 7.4), 0.5 mg/ml bovine serum albumin, 1 μM cGMP or cAMP, 0.1 μCi [^3H]-cGMP or [^3H]-cAMP, and 2-10 μl of column elution. The total volume of the assay was 100 μl. The reaction mixture was incubated at 30° C. for 30 minutes. The reaction was stopped by boiling for 1 minute and then cooled down on ice. The resulting [^3H]5′-mononucleotides were further converted to uncharged [^3H]-nucleosides by adding 25 μl 1 mg/ml snake venom (Ophiophagus hannah) and incubating at 30° C. for 10 minute. The reaction was stopped by the addition of 1 ml Bio-Rad AG1-X2 resin slurry (1:3). All the charged nucleotides were bound by the resin and only uncharged [^3H]-nucleosides remained in the supernatant after centrifuging. An aliquot of 200 μl was taken and counted by liquid scintillation. PDE activity was expressed as pmol cyclic nucleotide hydrolyzed/min/ml of enzyme preparation.
Inhibitor studies were carried out in assay buffer with a final concentration of 10% DMSO.
The % inhibition of the maximum substrate conversion (by the enzyme in the absence of inhibitor) was calculated for each test compound concentration. Using GraphPad Prism's nonlinear regression analysis (sigmoidal dose response), the % inhibition vs log of the test compound concentration was plotted to determine the IC50. Under conditions where substrate concentration <<Km of the enzyme (Km=substrate concentration at which half of the maximal velocity of the enzyme is achieved), Ki is equivalent to the IC50 value.
Unless otherwise noted, PDEV inhibitory activities were measured using human tissue. The abbreviation “stereo” refers to the stereogenic configuration, the abbreviation “Rac” shall denote a racemic mixture.

By IC50 is commonly meant the midpoint of a concentration-inhibition curve. In general, melting point refers to the temperature, or range, at which the solid turns liquid.

Turning to `COc1ccc(C2NCc3c2[nH]c2ccccc2c3=O)cc1OC` (racemic) [Compound 12, 1,2,3,4-Tetrahydro-3-(3,4-dimethoxyphenyl)-9H-pyrrolo-[3,4-b]quinolin-9-one], the melting point was 223 to 225 °C. At PDEV, the IC50 is 549 nM.
